We go through two compounds from patent US4278612A, “2-Chloro-2-alkyl substituted peroxyesters” (priority 1979, dated 1981).

The nature of the data set: Half-life data for 2-chloro-2-alkyl substituted peroxyesters (0.2M in Benzene). It is filed as physicochemical. The following applies: for Half-Life: 200000 µM. An excerpt: The following Table III illustrates the desirable half lifes obtainable with compositions of this invention:
HALF-LIFE DATA FOR SELECTED 2-CHLORO-2-ALKYL
SUBSTITUTED PEROXYESTERS (0.2M in Benzene)

Take `CCCCC(Cl)(CC)C(=O)OOC(C)(C)C` (stereo not drawn) [TBPCEH, t-Butyl peroxy 2-chloro-2-ethyl hexanoate]: the “10 Hr Half-Life Temp” value was 56.2 °C. Moreover, the Half-Life (55 °C.) was 11.55 h. The compound also returned a Half-Life (65 °C.) of 3.72 h. Also, the Half-Life (75 °C.) stood at 1.16 h. Under “80 °C.”, the Half-Life came to 0.68 h.

Turning to `CCC(Cl)(CC)C(=O)OOC(C)(C)CC(C)(C)C` [TMBPCEB, 1,1,3,3 Tetramethylbutylperoxy-2-chloro-2-ethylbutyrate], the Half-Life is, setting by setting: (47.5 °C.) 23.22 h; (50 °C.) 16.84 h; (55 °C.) 9.00 h; (65 °C.) 2.38 h.
